These results are taken from patent US8679478B2, “Methods of lysosomal storage disease therapy” (Duke University, priority 2010, dated 2014).

Holding throughout (format): in vivo, mouse
Experiment [1] has as its system GAA-KO mice. Kind of experiment: GAA activity in tissues, gene therapy plus clenbuterol. The procedure: FIG. 5A-5B depicts enhanced efficacy from liver-targeted gene therapy plus clenbuterol treatment. The GAA-KO mice were injected with AAV-LSPhGAA (2×10^10 vector particles/mouse) or uninjected (5 per group). Vector-treated mice were treated with AAV-LSPhGAA and clenbuterol or with AAV-LSPhGAA alone. Untreated (mock) GAA-KO mice were used as controls. Mice were euthanized for tissue analysis 4 weeks after vector injection. […] Statistically significant differences indicated (*=p<0.05; **=p<0.01).
(§1) For in vivo analysis of AAV vectors, stocks were administered intravenously (via the retroorbital sinus) in 3 month-old and 15 month-old GAA-KO mice, and to 3 month-old tolerant GAA-KO and DKO mice. Clenbuterol (30 μg/ml) was administered to groups of 3 month-old vector-injected and mock-injected male GAA-KO mice in drinking water for 28 days. At the indicated time points post-injection, tissue samples were obtained and processed as described below. All animal procedures were done in accordance with Duke University Institutional Animal Care and Use Committee-approved guidelines. GAA activity and glycogen content were analyzed essentially as described (Sun et al., Mol. Ther., 2005, 11:889-898; Sun et al., Mol. Ther., 2005, 11: 57-65). Rotarod testing was performed essentially as described (Sun, B. D. et al. 2005). […]

Experiment [2] concerns immune tolerant GAA-KO mice. Briefly: Weight of gastrocnemius, ERT plus β2 agonist. The note with it: clenbuterol plus ERT v. ERT alone or albuterol plus ERT. As to the method:
(§2) GAA-KO mice were administered four weekly doses of rhGAA (20 mg/kg), and treated with medium dose clenbuterol (n=7), albuterol (n=4) or untreated (n=6 or 3). […] Mean+/−standard deviation are shown. P values indicate statistically significant differences (lines).
(§3) Two β2 agonists were evaluated in combination with ERT, clenbuterol and albuterol. The dose of clenbuterol was reduced 5-fold from the concentration used in Example 4, to 6 mg/l in drinking water, while albuterol was evaluated at the higher dose (30 mg/l in drinking water). Groups of 3 month-old immune tolerant GAA-KO mice (Raben et al., Human Mol. Genet., 2001, 10:2039-2047) were treated with four weekly doses of rhGAA (20 mg/kg body weight), with or without concurrent β2 agonist treatment.
(§4) Mice were sacrificed 7 days after the last injection. Selected tissues were collected for GAA enzyme activity and glycogen content analyses. […] GAA activity and glycogen content analyses, Rotarod testing, and Western blot detection of CI-MPR was performed essentially as described (Koeberl et al., Mol. Genet. Metab., 2011, 103:107-112. Wire hang testing was performed with a 0.5 cm mesh hardware cloth fixed to an 8 by 10 inch frame. Mice were placed on the wire mesh, which was slowly inverted 6 inches over a cage containing paper bedding. The latency, or time until the mouse fell into the cage, was recorded.

The subject of experiment [3] is GAA-KO mice. Kind of experiment: Rotarod testing, liver-targeted gene therapy plus clenbuterol. The procedure: (§5) FIG. 4A-4B depicts enhanced Rotarod performance and weight gain following liver-targeted gene therapy plus clenbuterol treatment. The GAA-KO mice (5 per group) were injected with AAV-LSPhGAA (2×10^10 vector particles/mouse). Vector treated mice were treated with clenbuterol or untreated. Non-vector treated GAA-KO mice were treated with clenbuterol or untreated to serve as controls. Mice were euthanized for tissue analysis 4 weeks after vector injection. […] Mean+/−standard deviation are shown. Statistically significant differences indicated (*=p<0.05; **=p<0.01).
as §1
(The rotarod test checks motor coordination on a turning rod.)

Experiment [4] deals with GAA-KO mice. Kind of experiment: GAA activity in tissues, ERT plus clenbuterol. Conditions: ERT plus clenbuterol v. ERT alone. The procedure: FIG. 8A-8C depicts increased GAA uptake and increased glycogen clearance in GAA-KO mice following clenbuterol treatment and ERT. […] GAA-KO mice were administered four weekly doses of rhGAA (20 mg/kg), and treated with clenbuterol (n=6) or untreated (n=5). […] Mean+/−standard deviation are shown. Statistically significant differences indicated (*=p<0.05; **=p<0.01).
(§6) For in vivo analysis of AAV vectors, stocks were administered intravenously (via the retroorbital sinus) in 3 month-old and 15 month-old GAA-KO mice, and to 3 month-old tolerant GAA-KO and DKO mice. Clenbuterol (30 μg/ml) was administered to groups of 3 month-old vector-injected and mock-injected male GAA-KO mice in drinking water for 28 days. At the indicated time points post-injection, tissue samples were obtained and processed as described below. All animal procedures were done in accordance with Duke University Institutional Animal Care and Use Committee-approved guidelines. GAA activity and glycogen content were analyzed essentially as described (Sun et al., Mol. Ther., 2005, 11:889-898; Sun et al., Mol. Ther., 2005, 11: 57-65). Rotarod testing was performed essentially as described (Sun, B. D. et al. 2005). Western blotting of hGAA was performed essentially as described (Amalfitano et al., Proc. Natl. Acad. Sci. USA, 1999, 96: 8861-8866) using the hGAA monoclonal antibody (courtesy of Genzyme Corp., Framingham, Mass.) and the CI-MPR antibody (catalog number GTX28093; Gene Tex, Irvine, Calif.).
The efficacy from gene therapy was increased by β2 agonist stimulation from clenbuterol treatment, and this benefit might be expected to affect ERT in Pompe disease, as well. Therefore, groups of 3 month-old GAA-KO mice were treated with four weekly doses of rhGAA (20 mg/kg), with or without concurrent clenbuterol treatment.

The test system of experiment [5] is immune tolerant GAA-KO mice. Kind of experiment: Rotarod testing, ERT plus β2 agonist (Example 6). The note with it: after 4 weeks of treatment; clenbuterol 6 mg/l drinking water plus ERT v. ERT alone. As to the method: as §2, §3, §4
For experiment [6], the system named is GAA-KO mice. Kind of experiment: Weight gain, liver-targeted gene therapy plus clenbuterol. Conditions: vector plus clenbuterol v. mock treatment; p=0.06. The procedure:
as §5, §1

Experiment [7] concerns immune tolerant GAA-KO mice. Briefly: Wire hang testing, ERT plus β2 agonist. The note with it: clenbuterol plus ERT v. ERT alone. As to the method: as §2, §3, §4
For experiment [8], the system named is GAA-KO mice. Briefly: Rotarod testing, ERT (rhGAA) plus clenbuterol. The note with it: rhGAA 20 mg/kg weekly x4 plus clenbuterol v. ERT alone; male mice; p=0.04 at 1 week. As to the method:
GAA-KO mice were administered four weekly doses of rhGAA (20 mg/kg), and treated with clenbuterol (n=5) or ERT alone (n=5). […] Mean+/−standard deviation are shown. Statistically significant differences indicated (*=p<0.05; **=p<0.01).
as §6, with “Calif.). […]” for “Calif.).”

`CC(C)(C)NCC(O)c1cc(Cl)c(N)c(Cl)c1` (stereo not drawn) [clenbuterol]: the GAA activity entry in the experiment on GAA-KO mice [1] (heart, vector plus clenbuterol v. vector alone, p=0.03) is given as “significantly increased”; in the experiment on GAA-KO mice [1] (skeletal muscles and the brain, clenbuterol administration with vector), “significantly increased”; in the experiment with GAA-KO mice [4] (gastrocnemius, p=0.04), “significantly increased”; in the experiment on GAA-KO mice [4] (liver, p<0.0001) it was “significantly increased”; with GAA-KO mice [4] (spleen, p=0.002), “significantly increased”. In addition, in experiment [2], the “weight of the gastrocnemius” value is given as “increased”. Further, the Rotarod latency increase in the experiment with GAA-KO mice [3] (clenbuterol alone v. mock treatment, p=0.02) amounted to 26%; in the experiment with GAA-KO mice [3] (vector plus clenbuterol (30 μg/ml drinking water) v. vector alone, 4 weeks, p<2×10^−5), 75%. In addition, the Rotarod latency result was “significantly increased” in experiment [5] and “increased Rotarod latency” in the experiment with GAA-KO mice [8]. Besides, in the experiment with GAA-KO mice [6], the weight gain entry is “trend toward greater weight gain”. For the same molecule, in experiment [7], the Wire hang latency entry is given as “increased significantly”.
